Data reported in patent US20090082437A1, “Use of Oxaliplatin for Enhancing Radiosensitivity in Radiotherapy of Cervical Cancer” (MACKAY MEMORIAL HOSPITAL, priority 2007, published 2009).

How the values were obtained:
[1] = tested on: HeLa (HPV 18+) cells; assay: MTT cell viability assay; type: cell-based, human; conditions: 24 hours' exposure, MTT after 2 days in fresh medium
From the text: (§1) An ideal radiosensitizer means it enhances radiosensitivity at non-toxic dose, but not due to the combined toxicity of drug and radiation. Thus to determine the toxic effect of different oxaliplatin concentrations on human cervical cancer cells by using 3-(4,5-dimethylthiazol-2-yl)-2, S-diphenyl tetrazolium bromide (MTT) assay. This assay is commonly used to determine cell proliferation, percent of viable cells, and cytotoxicity. MTT is a yellow dye, which can be absorbed by the living cells and be reduced to purplish blue formazan crystals by succinate tetrazolium reductase in mitochondria. Formazan formation can therefore be used to assess and determine the survival rate of cells.
(§2) In preliminary work, the human cervical cancer cell lines HeLa (HPV 18+) and SiHa (HPV 16+) were obtained from American Type Culture Collection (Manassas, Va.). […]
(§3) The human cervical cancer cell lines HeLa (HPV 18+) and SiHa (HPV 16+) were separately cultivated in media containing various doses (0˜10 μM) of oxaliplatin for 24 hours. […] For the assay, the cells were incubated with the MTT (tetrazolium compounds) for 4 h, lysed with DMSO, and the color crystals were solubilized with an ELISA reader at a wavelength of 570 nm.

[2] = tested on: SiHa (HPV 16+) cells; assay: MTT cell viability assay; type: cell-based, human; conditions: 24 hours' exposure, MTT after 2 days in fresh medium
From the text: as §1, §2, §3

[3] = tested on: HeLa cells; assay: Colony formation assay after oxaliplatin pretreatment and irradiation (radiation survival); type: cell-based, human
Experimental: (§4) To evaluate whether oxaliplatin treatment influenced the radiosensitivity of cervical cancer cells, this experiment treated HeLa and SiHa cells with oxaliplatin at various concentrations for 2 h prior to radiation survival assays in the invention.
(§5) Based on the above results of cell viability assessment, 0˜10 μM oxaliplatin was used to test for radiation sensitization. HeLa and SiHa were pretreated with various doses (0, 1.25, 5, and 10 μM) of oxaliplatin for 2 h, and the oxaliplatin was washed out before radiation delivery. Irradiation was performed with 6 MeV of electron beam by a linear accelerator (Clinac® 1800, Varian Associates, Inc.) with various doses (0.5, 1, 2 and 3 Gy) at a dose rate of 2.4 Gy/min in a single fraction. Full electron equilibrium was ensured for each fraction by a parallel plate PR-60C ionization chamber (CAPINTEL, Inc., Ramsey, N.J.). Following radiation, a colony formation assay was performed. The ionizing radition of the present invention used include, but not limited to, electron beam radition, photon, electron, gamma, alpha, beta, neutron, and proton radiation. Among them, electron beam radition is preferred.
(§6) Viable tumor cells (10^3) were plated onto culture dishes (35 mm^2) and allowed to grow in McCoy's 5A medium containing 20% heat-inactivated FCS and 0.24% agarose at 37° C. in a humidified 5% CO2 incubator. After 10 to 14 days, the resultant colonies were stained with 0.4% crystal violet and the colonies containing at least 50 cells were determined. The surviving fraction was calculated as the mean colonies/(cells inoculated×plating efficiency). The control plating efficiency for HeLa and SiHa cells was 40-60%. Survival curves were fitted by a linear-quadratic model. The sensitizer enhancement ratio (SER) was calculated as the radiation dose needed for radiation alone divided by the dose needed for oxaliplatin plus radiation to yield a surviving fraction of 37% (Do in radiobiology).
(§7) Statistical analysis was performed by analysis of variance when comparing the colony formation between different treatment conditions. All data were presented as mean ±standard error of the mean (SEM). SPSS 10.0 software (SPSS Inc, Chicago) was used for analysis of all the data. Statistical significance was assumed where the p value was less than 0.05.

[4] = tested on: SiHa cells; assay: as above; type: cell-based, human
Experimental: as §4, §5, §6, §7

[5] = tested on: HeLa cells; assay: Cell cycle distribution by propidium iodide staining and flow cytometry; type: cell-based, human
Experimental: To eliminate the potential contribution of cell cycle redistribution to the observed radiosensitization, flow cytometric analysis was performed to determine cell cycle progression after treatment of oxaliplatin. After treating cervical cancer cell line HeLa with 5 μM oxaliplatin for 2 h or 24 h after radiaton, drugs was washed out and cells were cultured for further 24 h. HeLa cells were harvested and fixed with 70% ethanol at 4° C. for 1 h. The cells were stained for 30 min with propidium iodide solution (containing propidium iodide, 0.5 mg/mL; RNAse, 0.1 mg/mL) from a CycleTEST PLUS DNA reagent kit (Becton Dickinson, Lincoln Park, N.J.). Analysis of the DNA content was performed using a FACScaliber flow cytometer (Becton Dickinson). The data from 10^4 cells were collected and analyzed using ModFit software (Becton Dickinson).

[6] = tested on: HeLa cells; assay: Cell morphology (Wright's staining), mitotic catastrophe; type: cell-based, human
Experimental: After seeding for 24 h, HeLa cells were treated with various conditions including untreated control, oxaliplatin 5 μM for 2 h, radiation 2 Gy, and oxaliplatin 5 μM for 2 h followed by washing out and radiation 2 Gy. After these treatments, cell were cultured for further 24 h and then collected for Wright's staining and observation under a light microscope.

[7] = tested on: gamma-H2AX in HeLa cells; assay: Immunofluorescent staining of gamma-H2AX; type: cell-based, human; conditions: oxaliplatin 5 μM 2 h plus 2 Gy, 15 min after radiation
Experimental: Immunofluorescent staining was used to determine radiation-induced expression of gamma-H2AX which is an indicator of DNA double-strand break. For immunofluorescent staining of gamma-H2AX, HeLa cervical cancer cells that were untreated (control), treated with oxaliplatin 5 μM for 2 h, irradiation of 2 Gy, and oxaliplatin plus irradiation, cells were harvested 15 min after radiation, stained with Rhodamine-conjugated gamma-H2AX antibody (red) and counterstained with DAPI (blue), respectively.

[8] = tested on: pATM, pChk1, pChk2, Rad51 in HeLa cells; assay: Western blot of DNA damage repair molecules; type: cell-based, human; conditions: oxaliplatin 5 μM 2 h plus radiation 2 Gy
Experimental: For western blot analysis, HeLa cells were cultured with various treatments: untreated (control), oxaliplatin 5 μM for 2 h (oxaliplatin), radiation 2 Gy (RT alone) and oxaliplatin plus radiation (oxaliplatin+RT) for further 1 h and 6 h. Then, the cellular proteins were extracted, quantified and subjected to gel electrophoresis using 10% (wt/vol) SDS-polyacrylamide gels. Protein samples were then blotted onto polyvinylidene difluoride (PVDF) membranes (Bio-Rad, Hercules, Calif.). The membranes were probed with diluted primary antibodies and detected using horseradish peroxidase-conjugated anti-mouse IgG followed by the use of enhanced chemiluminescence kits (Amersham Pharmacia Biotech). Anti-actin antibody was used as an internal control.

[9] = tested on: HPV 18 positive adenocarcinoma cell (HeLa); conditions: cited from earlier work
[10] = oxaliplatin 5 μM 2 h, versus untreated

| SMILES | highest non-toxic (cell viability>90%) dose [1] [µM] | highest non-toxic (cell viability>90%) dose [2] [µM] | sensitizer enhancement ratio (SER) at 37% survival ([3]; HeLa, oxaliplatin 5 μM for 2 h before radiation) | sensitizer enhancement ratio (SER) at 37% survival ([3]; HeLa, oxaliplatin 10 μM for 2 h before radiation (maximal SER)) | survival of irradiated tumor cells compared to radiation only ([3]; HeLa, pretreatment at 5 and 10 μM, radiation 0.5-3 Gy) | enhancement of radiation efficiency versus radiation alone ([3]; cervical cancer cell lines (HeLa and SiHa)) | maximal sensitizer enhancement ratio (SER) at 37% survival ([4]; oxaliplatin 2 h before radiation) | survival of irradiated tumor cells compared to radiation only ([4]; pretreatment at 5 and 10 μM, radiation 0.5-3 Gy) | proportion in the G0/G1 phase [5, 10] | proportion of cells in the S phase [5, 10] | percentage of cells at G2/M phase ([5]; oxaliplatin 5 μM plus irradiation, irradiation alone 26.2%±3.7) | percentages of apoptosis and necrosis ([6]; between all groups) | percentage cells with mitotic catastrophe ([6]; oxaliplatin 5 μM 2 h alone, untreated control 5.6±1.3%) [%] | percentage cells with mitotic catastrophe ([6]; oxaliplatin 5 μM 2 h followed by radiation 2 Gy, radiation alone 16.7±3.2%) [%] | radiation-induced early expression of gamma-H2AX [7] | Chk1 phosphorylation in irradiated cells [8] | expression of rad51 in irradiated cells [8] | radiation-augmented phosphorylation of Chk2 [8] | radiation-induced expression of phosphorylated ATM [8] | effect of combination with radiation [9] |
| --- | --- | --- | --- | --- | --- | --- | --- | --- | --- | --- | --- | --- | --- | --- | --- | --- | --- | --- | --- | --- |
| O=C1[O][Pt]2([NH][C@@H]3CCCC[C@H]3[NH]2)[O]C1=O [oxaliplatin] | 5 | 10 | 1.7 | 3.4 | markedly decreased | 3.1-3.9 times | 4.8 | markedly decreased | decreased | remained unchanged | 32.3%±3.5 | no marked changes | 27.3±2.2 | 38.5±3.8 | reduced | no effect | no effect | reduced | markedly reduced |  |
| N.N.[Cl][Pt][Cl] [cisplatin] |  |  |  |  |  |  |  |  |  |  |  |  |  |  |  |  |  |  |  | no effect |
